Several values for one entry are separate records, joined by “and”; a condition that tells them apart may be missing. Equal entries are not always repeated. Structures can show the parent of a compound that is named as a salt. Where two headings read alike, the source gives them in different places.
How the values were obtained:
[1] = target: MCL-1 (Homo sapiens, UniProt Q07820); assay: Protein-protein interaction assay MCL-1/Noxa BH3 peptide (MCL-1 assay), TR-FRET; format: binding; settings: MBP-MCL-1 / Noxa BH3-derived peptide, median
Sequence of MCL-1 (Q07820 whole entry): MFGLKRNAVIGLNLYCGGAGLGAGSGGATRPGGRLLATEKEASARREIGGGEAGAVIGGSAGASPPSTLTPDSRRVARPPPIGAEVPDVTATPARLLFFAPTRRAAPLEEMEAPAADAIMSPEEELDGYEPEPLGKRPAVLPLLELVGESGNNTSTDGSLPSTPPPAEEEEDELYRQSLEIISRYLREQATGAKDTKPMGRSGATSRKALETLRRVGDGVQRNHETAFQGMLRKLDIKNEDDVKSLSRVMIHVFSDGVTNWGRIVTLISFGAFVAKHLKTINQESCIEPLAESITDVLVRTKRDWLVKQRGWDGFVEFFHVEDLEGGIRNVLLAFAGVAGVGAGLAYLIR
In short: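 Inhibition values were normalized between DMSO controls with all reagents and controls lacking MCL-1. The binding competition used 1 nM MBP-MCL-1 in pH 7 Tris buffer containing 50 mM KF and 100 mM NaCl, with a 10 min compound preincubation at 22 °C.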

[2] = tested on: SUDHL5; assay: Induction of caspase-3/7 activity (Caspase-Glo 3/7), SUDHL5; format: cell-based; settings: caspase-3/7 induction, SUDHL5 cells, 3 h treatment, median
In short: (§1)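 Apoptosis induction measured as caspase-3/7 activity (Caspase-Glo 3/7) in DLBCL lines after 3 h treatment at 37 °C; EC50 derived relative to the reference compound's maximal induction, with C0 fixed at 1.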

[3] = tested on: SUDHL10; assay: Induction of caspase-3/7 activity (Caspase-Glo 3/7), SUDHL10; format: cell-based; settings: caspase-3/7 induction, SUDHL10 cells, 3 h treatment, median
In short: as §1

[4] = tested on: SUDHL5; assay: Anti-proliferative effect (CellTiter-Glo, 72 h), SUDHL5; format: cell-based; settings: SUDHL5 cells, antiproliferation, median, read-out: Antiproli SUDHL5 [M] (median)
In short: (§2)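 After seeding, one plate is read right away by CellTiter-Glo luminescence to fix time zero. The treated plates stay at 37 °C in humidified air for 72 h and are then measured with the same reagent and 10 min incubation.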

[5] = tested on: A2780; assay: Anti-proliferative effect (CellTiter-Glo, 72 h), A2780; format: cell-based; settings: A2780 cells, median, read-out: IC50 antiproliferation assay A2780 [M] (median)
In short: as §2

[6] = tested on: MV-4-11; assay: Anti-proliferative effect (CellTiter-Glo, 72 h), MV-4-11; format: cell-based; settings: MV-4-11 cells, median, read-out: IC50 antiproliferation assay MV-4-11 [M] (median)
In short: as §2

[7] = tested on: SUDHL5; assay: Induction of cytotoxicity (CellTiter-Glo, 5 h), SUDHL5
[8] = tested on: SUDHL10; assay: Induction of cytotoxicity (CellTiter-Glo, 5 h), SUDHL10
[9] = read-out: Cytotox SUDHL5 [M] (median), SUDHL5 cells, cytotoxicity induction, CellTiter-Glo, 5 h incubation, median
[10] = read-out: Cytotox SUDHL10 [M] (median), SUDHL10 cells, cytotoxicity induction, CellTiter-Glo, 5 h incubation, median
[11] = Homo sapiens, SU-DHL-5, 72 h, 72 h
[12] = Homo sapiens, SU-DHL-5, 5 h, read-out: Cytotox SUDHL5 [M] (median), SUDHL5 cells, cytotoxicity induction, CellTiter-Glo, 5 h, median
[13] = Homo sapiens, SU-DHL10, 5 h, read-out: Cytotox SUDHL10 [M] (median), SUDHL10 cells, cytotoxicity induction, CellTiter-Glo, 5 h, median
[14] = read-out: Cytotox SUDHL10 [M] (median), SUDHL10 cells, cytotoxicity induction, CellTiter-Glo, 5 h, median

SMILES	IC50 [1] [µM]	EC50 [2]	EC50 [3] [µM]	IC50 ([4]; 72 h incubation) [M]	IC50 ([5]; Homo sapiens, A2780, 72 h) [M]	IC50 ([6]; Homo sapiens, MV4-11, 72 h) [M]	IC50 [5] [M]	IC50 [6] [M]	EC50 ([2]; Homo sapiens, SU-DHL-5, 3 h) [µM]	EC50 ([3]; Homo sapiens, SU-DHL10, 3 h) [µM]	IC50 [4, 11] [M]	IC50 ([4]; 72 h) [M]	IC50 [7, 9] [M]	IC50 ([8]; Homo sapiens, SU-DHL10, 5 h, read-out: Cytotox SUDHL10 [M] (median), SUDHL10 cells, cytotoxicity induction, CellTiter-Glo, 5 h incubation, median)	IC50 [8, 10] [M]	IC50 [7, 12] [M]	IC50 [8, 13] [M]	IC50 ([7]; read-out: Cytotox SUDHL5 [M] (median), SUDHL5 cells, cytotoxicity induction, CellTiter-Glo, 5 h, median)	IC50 [8, 14] [M]
CN1CCCCn2c(C(=O)O)c(CCCOc3cccc4ccccc34)c3cccc(c32)-c2c(/C=C/F)nn(C)c2C1 (single isomer, unassigned) [Example 226, 3-[(E)-2-fluoroethenyl]-1,14-dimethyl-7-[3-(naphthalen-1-yloxy)propyl]-10,11,12,13,14,15-hexahydro-1H-pyrazolo[3′,4′:8,9][1,6]diazacycloundecino[10,11,1-hi]indole-8-carboxylic Acid]	0.00302	3.15 µM	14.2	3.15e-06	> 3.3e-05	2.09e-05	–	–	–	–	–	–	3.41e-06	3.04e-05	–	–	–	–	–
COc1c2c(nn1C)COCCCCn1c(C(=O)O)c(CCCOc3cccc4ccccc34)c3cccc-2c31 (single isomer, unassigned) [Example 208, 3-methoxy-2-methyl-7-[3-(naphthalen-1-yloxy)propyl]-2,10,11,12,13,15-hexahydropyrazolo[4′,3′:9,10][1,6]oxazacycloundecino[8,7,6-hi]indole-8-carboxylate]	0.00373	2.99 µM	14	3.12e-06	2.03e-05	2.68e-06	–	–	–	–	–	–	2.63e-06	–	9.98e-06	–	–	–	–
Cc1ccc2c(C(C)CCOc3cccc4cc(F)ccc34)c(C(=O)O)n3c2c1-c1c(nn(C)c1C)COCCCC3 (single isomer, unassigned) [Example 280, 7-{4-[(6-fluoronaphthalen-1-yl)oxy]butan-2-yl}-2,3,4-trimethyl-2,10,11,12,13,15-hexahydropyrazolo[4′3′:9,10][1,6]oxazacycloundecino[8,7,6-hi]indole-carboxylic Acid]	0.194	> 33 µM	32.4	1.18e-05	–	–	8.02e-06	1.11e-05	–	–	–	–	> 3.3e-05	–	3.07e-05	–	–	–	–
CN1CCCCn2c(C(=O)O)c(CCCOc3cccc4ccccc34)c3cccc(c32)-c2c(CC(F)(F)F)nn(C)c2C1 (single isomer, unassigned) [Example 224, 1,14-dimethyl-7-[3-(naphthalen-1-yloxy)propyl]-3-(2,2,2-trifluoroethyl)-10,11,12,13,14,15-hexahydro-1H-pyrazolo[3′,4′:8,9][1,6]diazacycloundecino[10,11,1-hi]indole-8-carboxylic Acid]	0.395	> 33 µM	> 33	6.03e-06	–	–	1.45e-05	1.22e-05	–	–	–	–	> 3.3e-05	–	3.2e-05	–	–	–	–
CCc1c2c(nn1CCN1CCOCC1)COCCCCn1c(C(=O)O)c(CCCOc3cccc4ccccc34)c3ccc(C)c-2c31 (single isomer, unassigned; enantiomer 2) [Example 206, 3-ethyl-4-methy-2-[2-(morpholin-4-yl)ethyl]-7-[3-(naphthalen-1-yloxy)propyl]-2,10,11,1213,15-hexahydropyrazolo[4′3′:9,10][1,6]oxazacycloundecino[8,7,6-hi]indole-carboxylic Acid (Enantiomer 2)]	0.0155	13.1 µM	17.5	1.03e-05	–	–	2.28e-05	1.92e-05	–	–	–	–	1.4e-05	–	1.6e-05	–	–	–	–
CCc1c2c(nn1C)COCCCCn1c(C(=O)O)c(CCCOc3cccc4cc(F)ccc34)c3cccc-2c31 (single isomer, unassigned) [Example 283]	0.0444	30.7 µM and > 33 µM	> 33	8.33e-06	–	–	1.5e-05	1.46e-05	–	–	–	–	2.17e-05	–	3.05e-05	–	–	–	–
CCc1nn(C)c2c1-c1c(C)ccc3c(C(C)CCOc4cccc5ccccc45)c(C(=O)O)n(c13)CCCCOC2 (single isomer, unassigned) [Example 274, 3-ethyl-1,4-dimethyl-7-[4-(naphthalen-1-yloxy)butan-2-yl]-1,10,11,12,13,15-hexahydropyrazolo[4′,3′:9,10][1,6]oxazacycloundecino[8,7,6-hi]indole-8-carboxylic Acid]	1.56	> 33 µM	31.7	3.93e-06	–	–	1.17e-05	8.02e-06	–	–	–	–	> 3.3e-05	–	> 3.3e-05	–	–	–	–

Continued, in another order:

IC50 [1] [µM]	EC50 [2]	EC50 [3] [µM]	IC50 ([4]; 72 h incubation) [M]	IC50 ([5]; Homo sapiens, A2780, 72 h) [M]	IC50 ([6]; Homo sapiens, MV4-11, 72 h) [M]	IC50 [5] [M]	IC50 [6] [M]	EC50 ([2]; Homo sapiens, SU-DHL-5, 3 h) [µM]	EC50 ([3]; Homo sapiens, SU-DHL10, 3 h) [µM]	IC50 [4, 11] [M]	IC50 ([4]; 72 h) [M]	SMILES	IC50 [7, 9] [M]	IC50 ([8]; Homo sapiens, SU-DHL10, 5 h, read-out: Cytotox SUDHL10 [M] (median), SUDHL10 cells, cytotoxicity induction, CellTiter-Glo, 5 h incubation, median)	IC50 [8, 10] [M]	IC50 [7, 12] [M]	IC50 [8, 13] [M]	IC50 ([7]; read-out: Cytotox SUDHL5 [M] (median), SUDHL5 cells, cytotoxicity induction, CellTiter-Glo, 5 h, median)	IC50 [8, 14] [M]
1.51	–	–	–	> 3.3e-05	> 3.3e-05	–	–	> 33	> 33	3.2e-05	–	Cc1c2c(nn1C)COCCCCn1c(C(=O)O)c(CCc3ccc(C(F)(F)F)cc3)c3cccc-2c31 (racemic) [Example 355, (rac)-2,3-dimethyl-7-{2-[4-(trifluoromethyl)phenyl]ethyl}-2,10,11,12,13,15-hexahydropyrazolo[4′,3′:9,10][1,6]oxazacycloundecino[8,7,6-hi]indole-8-carboxylic Acid]	–	–	–	> 3.3e-05	> 3.3e-05	–	–
0.106	> 33 µM	> 33	–	–	–	2.23e-05	1.89e-05	–	–	–	1.05e-05	CCc1nn(C)c2c1-c1cccc3c(CCCOc4cccc5cc(F)ccc45)c(C(=O)O)n(c13)CCCCOC2 (single isomer, unassigned) [Example 289, (−)-3-ethyl-7-{3-[(6-fluoronaphthalen-1-yl)oxy]propyl}-1-methyl-1,10,11,12,13,15-hexahydropyrazolo[4′,3′:9,10][1,6]oxazacycloundecino[8,7,6-hi]indole-8-carboxylic Acid]	–	–	–	–	–	2.9e-05 M and > 3.3e-05 M	> 3.3e-05
0.00308	–	–	–	> 3.3e-05	> 3.3e-05	–	–	17.7	> 33	1.43e-05	–	Cc1nn(C)c2c1-c1cccc3c(CCCOc4cccc5c(Cl)cccc45)c(C(=O)O)n(c13)CCCCOC2 (racemic) [Example 316, (rac)-1-(3-((5-chloronaphthalen-1-yl)oxy)propyl)-10,12-dimethyl-4,5,6,7,9,10-hexahydropyrazolo[4′,3′:9,10][1,6]oxaazacycloundecino[8,7,6-hi]indole-2-carboxylic Acid]	–	–	–	1.94e-05	> 3.3e-05	–	–
0.0409	–	–	–	> 3.3e-05	3.19e-05	–	–	> 33	> 33	3.27e-05	–	Cc1c2c(nn1C)COCCCCn1c(C(=O)O)c(CCOc3ccc4ccccc4c3)c3cccc-2c31 (racemic) [Example 357, (rac)-2,3-dimethyl-7-[2-(naphthalen-2-yloxy)ethyl]-2,10,11,12,13,15-hexahydropyrazolo[4′,3′:9,10][1,6]oxazacycloundecino[8,7,6-hi]indole-8-carboxylic Acid]	–	–	–	> 3.3e-05	> 3.3e-05	–	–
0.0563	> 33 µM	–	–	> 3.3e-05	–	–	1.53e-05	24.3	> 33	1.38e-05	–	COc1ccc2c(CCCOc3cccc4ccccc34)c(C(=O)O)n3c2c1-c1c(nn(C)c1C)COCCCC3 (single isomer, unassigned; enantiomer 1) [Example 350, 4-methoxy-2,3-dimethyl-7-[3-(naphthalen-1-yloxy)propyl]-2,10,11,12,13,15-hexahydropyrazolo[4′,3′:9,10][1,6]oxazacycloundecino[8,7,6-hi]indole-8-carboxylic acid-N-ethylethanamine Salt (Enantiomer 1)]	–	–	–	2.07e-05	3.11e-05	–	> 3.3e-05
